According to patent publication US20240174695A1, “Spirocycle Containing Bicyclic Heteroaryl Compounds” (Protego Biopharma, Inc., priority 2022, published 2024):

system: Recombinant amyloidogenic full length light chain protein WIL-FL T46L; assay: Differential Scanning Fluorimetry Assay (thermal shift assay); type: binding; conditions: Thermal Shift Protein Stability Kit (Biotium), 96-well plates; protein and compounds incubated at RT for 30 min before adding the dye; also: test concentration or dose not given here
Procedure: Differential Scanning Fluorimetry Assay
The stabilization effects the compounds have on the immunoglobulin light chain protein were quantitively measured using a thermal shift assay. Recombinant amyloidogenic full length light chain protein WIL-FL T46L was produced in E. coli, purified, and used in the assay. The Thermal Shift Protein Stability Kit from Biotium was used and the assay was done in 96-well plates following the manufacturer's instructions. The protein and compounds were incubated at RT for 30 min before adding the dye and subjected to the thermal shift assay. The thermal stability (Tm) of each sample was then determined using standard curve fitting methods and compared to vehicle. Data are expressed as temperature shift: [Tm]compound−[Tm]vehicle.
Results • 0-0.5° C.=* • >0.5-1° C.=** • >1-1.5° C.=*** • >1.5-2.5° C.=**** • >2.5° C.=*****

| SMILES | DSF temperature shift: [Tm]compound−[Tm]vehicle |
| --- | --- |
| Cc1cc(OCC2(c3ccccc3)CC2)cn2nc(C(O)CN3CC4(CCN(c5nccn6cncc56)CC4)NC3=O)nc12 (stereo not shown) [Compound 57] | ***** (>2.5° C.=*****) |
| Cc1nccnc1N1CCC2(CC1)CN(CCc1nc3c(C)cc(OC[C@H](C)c4ccccc4)cn3n1)C(=O)N2 [Compound 94] | **** (>1.5-2.5° C.=****) |
| Cc1cc(OCC2(c3ccccc3)CC2)cn2nc(C(O)CN3CC4(CCN(c5ccc(C(=O)O)nc5)CC4)NC3=O)nc12 (stereo not shown) [Compound 48] | **** (>1.5-2.5° C.=****) |
| Cc1cc(OC[C@H](C)c2ccccc2)cn2nc(CCN3CC4(CCN(c5ncns5)CC4)NC3=O)nc12 [Compound 119] | **** (>1.5-2.5° C.=****) |
| Cc1ncnc(N2CCC3(CC2)CN(CCc2nc4c(C)cc(OC[C@H](C)c5ccccc5)cn4n2)C(=O)N3)c1C [Compound 118] | **** (>1.5-2.5° C.=****) |
| Cc1nccc(N2CCC3(CC2)CN(CC(O)c2nc4c(C)cc(OCC5(c6ccccc6)CC5)cn4n2)C(=O)N3)n1 (stereo not shown) [Compound 50] | **** (>1.5-2.5° C.=****) |
| CNC(=O)c1cc(N2CCC3(CC2)CC(=O)N(CC(C)(O)c2nc4c(C)cc(OC[C@H](C)c5ccccc5)cn4n2)C3)ccn1 (stereo partly shown) [Compound 131] | *** (>1-1.5° C.=***) |
| Cc1cc(OCC2(c3ccccc3)CC2)cn2nc(C(O)CN3CC4(CCN(C(=O)Cn5cnnn5)CC4)NC3=O)nc12 (stereo not shown) [Compound 33] | **** (>1.5-2.5° C.=****) |
| Cc1cc(OCC(C)c2ccccc2)cn2nc(CCN3CC4(CCN(c5nccn6ccnc56)CC4)NC3=O)nc12 (stereo not shown) [Compound 9, 8-(Imidazo[1,2-a]pyrazin-8-yl)-3-(2-(8-methyl-6-(2-phenylpropoxy)-[1,2,4]triazolo[1,5-a]pyridin-2-yl)ethyl)-1,3,8-triazaspiro[4.5]decan-2-one] | ***** (>2.5° C.=*****) |
| Cc1cc(OCC2(c3ccccc3)CC2)cn2nc(C(O)CN3CC4(CCN(c5cnc(Cl)cn5)CC4)NC3=O)nc12 (stereo not shown) [Compound 55] | **** (>1.5-2.5° C.=****) |
| COC(CN1CC2(CCN(c3ccnc(O)c3)CC2)NC1=O)c1nc2c(C)cc(OC[C@H](C)c3ccccc3)cn2n1 (stereo partly shown) [Compound 138] | **** (>1.5-2.5° C.=****) |
| Cc1nc(N2CCC3(CC2)CN(CCc2nc4c(C)cc(OC[C@H](C)c5ccccc5)cn4n2)C(=O)N3)no1 [Compound 123] | **** (>1.5-2.5° C.=****) |
| Cc1cc(OC[C@H](C)c2ccccc2)cn2nc(C(O)CN3CC4(CCN(c5nccn6cnnc56)CC4)NC3=O)nc12 (stereo partly shown) [Compound 76] | ***** (>2.5° C.=*****) |
| Cc1cc(OC[C@H](C)c2ccccc2)cn2nc(CCN3CC4(CCN(c5nccn6cnnc56)CC4)OC3=O)nc12 [Compound 116, (R)-8-([1,2,4]triazolo[4,3-a]pyrazin-8-yl)-3-(2-(8-methyl-6-(2-phenylpropoxy)-[1,2,4]triazolo[1,5-a]pyridin-2-yl)ethyl)-1-oxa-3,8-diazaspiro[4.5]decan-2-one] | **** (>1.5-2.5° C.=****) |
| Cc1cc(OC[C@H](C)c2ccccc2)cn2nc(C(O)CN3CC4(CCN(C(=O)Cn5nnnc5C)CC4)NC3=O)nc12 (stereo partly shown) [Compound 71] | **** (>1.5-2.5° C.=****) |
| Cc1nonc1C(=O)N1CCC2(CC1)CN(CC(O)c1nc3c(C)cc(OCC4(c5ccccc5)CC4)cn3n1)C(=O)N2 (stereo not shown) [Compound 31] | **** (>1.5-2.5° C.=****) |
| Cc1cc(OCC2(c3ccccc3)CC2)cn2nc(C(O)CN3CC4(CCN(c5ccncc5)CC4)NC3=O)nc12 (stereo not shown) [Compound 46] | **** (>1.5-2.5° C.=****) |
| Cc1cc(OC[C@H](C)c2ccccc2)cn2nc(C(O)CN3CC4(CN(c5cccc(O)n5)C4)NC3=O)nc12 (stereo partly shown) [Compound 83] | ***** (>2.5° C.=*****) |
| Cc1cc(OC[C@H](C)c2ccccc2)cn2nc(C(O)CN3CC4(CCN(c5cncnc5)CC4)NC3=O)nc12 (stereo partly shown) [Compound 75] | **** (>1.5-2.5° C.=****) |
| Cc1cc(OCC2(c3ccccc3)CC2)cn2nc(C(O)CN3CC4(CCN(c5ccn(C)n5)CC4)NC3=O)nc12 (stereo not shown) [Compound 61] | **** (>1.5-2.5° C.=****) |
| Cc1cc(OC[C@H](C)c2ccccc2)cn2nc(CCN3CC4(CN(c5cccc(C(=O)O)n5)C4)NC3=O)nc12 [Compound 126] | *** (>1-1.5° C.=***) |
| Cc1cc(OC[C@H](C)c2ccccc2)cn2nc(CCN3CC4(CCN(c5ccnc(F)n5)CC4)NC3=O)nc12 [Compound 111] | **** (>1.5-2.5° C.=****) |
| Cc1cc(N2CCC(C)(c3ccccc3)C2)cn2nc(CCCN3CC4(CCN(c5nccn6ccnc56)CC4)NC3=O)nc12 (stereo not shown) [Compound 4] | ***** (>2.5° C.=*****) |

| SMILES | DSF temperature shift: [Tm]compound−[Tm]vehicle |
| --- | --- |
| Cc1cc(OC[C@H](C)c2ccccc2)cn2nc(CCN3CC4(CCN(c5nccn6ccnc56)CC4)NC3=O)nc12 [Compound 10] | ***** (>2.5° C.=*****) |
| Cc1cc(OCC2(c3ccccc3)CC2)cn2nc(C(O)CN3CC4(CCN(C(=O)C5(c6ccccn6)CC5)CC4)NC3=O)nc12 (stereo not shown) [Compound 29] | ***** (>2.5° C.=*****) |
| Cc1cc(OC[C@H](C)c2ccccc2)cn2nc(C(O)CN3CC4(CN(c5nccc(C(=O)O)n5)C4)NC3=O)nc12 (stereo partly shown) [Compound 87] | ***** (>2.5° C.=*****) |
| Cc1cc(OC[C@H](C)c2ccccc2)cn2nc(C(O)CN3CC4(CCN(c5nccn6cnnc56)CC4)OC3=O)nc12 (stereo partly shown) [Compound 77] | **** (>1.5-2.5° C.=****) |
| Cc1cc(OC[C@H](C)c2ccccc2)cn2nc(C(O)CN3CC4(CN(c5cccc(C(=O)O)n5)C4)NC3=O)nc12 (stereo partly shown) [Compound 86] | **** (>1.5-2.5° C.=****) |
| Cc1cc(OC[C@H](C)c2ccccc2)cn2nc(CCN3CC4(CCN(c5cc(F)nc(F)n5)CC4)NC3=O)nc12 [Compound 110] | **** (>1.5-2.5° C.=****) |
| Cc1cc(OCC2(c3ccccc3)CC2)cn2nc(C(O)CN3CC4(CCN(c5ncccn5)CC4)NC3=O)nc12 (stereo not shown) [Compound 56] | ***** (>2.5° C.=*****) |
| Cc1ccc(N2CCC3(CC2)CN(CCc2nc4c(C)cc(OC[C@H](C)c5ccccc5)cn4n2)C(=O)N3)nn1 [Compound 121] | **** (>1.5-2.5° C.=****) |
| Cc1cc(OCC2(c3ccccc3)CC2)cn2nc(C(O)CN3CC4(CCN(c5cncnc5)CC4)NC3=O)nc12 (stereo not shown) [Compound 49] | **** (>1.5-2.5° C.=****) |
| Cc1cc(OC[C@H](C)c2ccccc2)cn2nc(C(O)CN3CC4(CCN(C(=O)c5ncn(C)n5)CC4)NC3=O)nc12 (stereo partly shown) [Compound 69] | **** (>1.5-2.5° C.=****) |
| Cc1cc(OC[C@H](C)c2ccccc2)cn2nc(C(O)CN3CC4(CN(c5ccnc(C(=O)O)c5)C4)NC3=O)nc12 (stereo partly shown) [Compound 80] | ***** (>2.5° C.=*****) |
| CNC(=O)c1cc(N2CCC3(CC2)CN(Cc2nc4c(C)cc(OC[C@H](C)c5ccccc5)cn4n2)C(=O)N3)ccn1 [Compound 134] | **** (>1.5-2.5° C.=****) |
| COc1ccc(N2CCC3(CC2)CN(CCc2nc4c(C)cc(OC[C@H](C)c5ccccc5)cn4n2)C(=O)N3)c(C)n1 [Compound 141] | ** (>0.5-1° C.=**) |
| Cc1cc(OCC2(c3ccccc3)CC2)cn2nc(C(O)CN3CC4(CCN(c5cnc(C#N)c(F)c5)CC4)NC3=O)nc12 (stereo not shown) [Compound 38] | **** (>1.5-2.5° C.=****) |
| Cc1cc(N2CC[C@@](C)(c3ccccc3)C2)cn2nc(CCN3CC4(CCN(c5nccn6ccnc56)CC4)NC3=O)nc12 [Compound 3] | ***** (>2.5° C.=*****) |
| COc1cccc(N2CCC3(CC2)CN(CC(O)c2nc4c(C)cc(OCC5(c6ccccc6)CC5)cn4n2)C(=O)N3)n1 (stereo not shown) [Compound 140] | **** (>1.5-2.5° C.=****) |
| Cc1ncc(N2CCC3(CC2)CN(CCc2nc4c(C)cc(OC[C@H](C)c5ccccc5)cn4n2)C(=O)N3)s1 [Compound 107] | **** (>1.5-2.5° C.=****) |
| Cc1cc(N2CC[C@@](C)(c3ccccc3)C2)cn2nc(C(O)CN3CC4(CN(c5ccnc(O)c5)C4)NC3=O)nc12 (stereo partly shown) [Compound 23] | ***** (>2.5° C.=*****) |
| Cc1cc(OCC2(c3ccccc3)CC2)cn2nc(C(O)CN3CC4(CCN(c5nc(F)ccc5N)CC4)NC3=O)nc12 (stereo not shown) [Compound 53] | **** (>1.5-2.5° C.=****) |
| Cc1cc(OC[C@H](C)c2ccccc2)cn2nc(C(O)CN3CC4(CN(c5ccnc(O)c5)C4)OC3=O)nc12 (stereo partly shown) [Compound 81] | ***** (>2.5° C.=*****) |
| Cc1cc(N2CCC3(CC2)CN(CC(O)c2nc4c(C)cc(OCC5(c6ccccc6)CC5)cn4n2)C(=O)N3)ccn1 (stereo not shown) [Compound 18] | ***** (>2.5° C.=*****) |
| C[C@@H](COc1cc(CO)c2nc(C(O)CN3CC4(CN(c5ccnc(O)c5)C4)NC3=O)nn2c1)c1ccccc1 (stereo partly shown) [Compound 144] | ***** (>2.5° C.=*****) |
| Cc1cc(OCC2(c3ccccc3)CC2)cn2nc(C(O)CN3CC4(CCN(c5cc(F)nc(F)c5)CC4)NC3=O)nc12 (stereo not shown) [Compound 39] | ** (>0.5-1° C.=**) |
